Literature values, collected in patent publication US20240252348A1, “EVA SEGMENTED INTRAVAGINAL RINGS CONTAINING PROGESTERONE” (priority 2019, published 2024).

System: women with a short cervix
Conditions: singleton pregnant women with short cervical length (SCL)

CCCCCC(=O)O[C@]1(C(C)=O)CC[C@H]2[C@@H]3CCC4=CC(=O)CC[C@]4(C)[C@H]3CC[C@@]21C [Makena, 17-alpha hydroxyprogesterone caproate]
prevention of preterm birth: ineffective
